Reference: PubChem BioAssay AID248 (DTP/NCI, 2004)
Several values for one entry are separate records, joined by “and”; a condition that tells them apart may be missing. Identical values can stand only once. Inconclusive results and toxic doses are left out.

System: L1210 leukemia ip in BDF1 mice, survival T/C
Assay: NCI In Vivo Anticancer Drug Screen. Data for tumor model L1210 Leukemia (intraperitoneal) in B6D2F1 (BDF1) mice
Conditions: endpoint: mean survival time, higher = longer survival
In short: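 Value reflects the ratio of survival in compound-treated mice to survival in vehicle-treated controls, with both groups carrying the same transplanted tumor.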

[1] = dose: 15.0 mg/kg/injection, schedule: Q01DX001 (ip), vehicle: saline
[2] = dose: 100.0 mg/kg/injection, schedule: Q01DX001 (ip), vehicle: carboxymethylcellulose (CMC)
[3] = dose: 200.0 mg/kg/injection, schedule: Q01DX001 (ip), vehicle: carboxymethylcellulose (CMC)
[4] = dose: 400.0 mg/kg/injection, schedule: Q01DX001 (ip), vehicle: carboxymethylcellulose (CMC)
[5] = dose: 100.0 mg/kg/injection, schedule: Q01DX001 (ip), vehicle: saline
[6] = dose: 200.0 mg/kg/injection, schedule: Q01DX001 (ip), vehicle: saline
[7] = dose: 400.0 mg/kg/injection, schedule: Q01DX001 (ip), vehicle: saline
[8] = dose: 100.0 mg/kg/injection, schedule: Q04DX003 (ip), vehicle: saline with Tween-80
[9] = dose: 200.0 mg/kg/injection, schedule: Q04DX003 (ip), vehicle: saline with Tween-80
[10] = dose: 400.0 mg/kg/injection, schedule: Q04DX003 (ip), vehicle: saline with Tween-80
[11] = dose: 100.0 mg/kg/injection, schedule: Q04DX003 (ip), vehicle: saline
[12] = dose: 200.0 mg/kg/injection, schedule: Q04DX003 (ip), vehicle: saline
[13] = dose: 400.0 mg/kg/injection, schedule: Q04DX003 (ip), vehicle: saline

Question: Which T/C (dose: 100.0 mg/kg/injection, schedule: Q01DX001 (ip), vehicle: Klucel (hydroxypropylcellulose) (HPC)) does the source give for `O=C(NC/C(Br)=C/Br)Nc1c(Cl)cccc1Cl` here?
Answer: 94 % of control

Question: And the T/C (dose: 100.0 mg/kg/injection, schedule: Q04DX003 (ip), vehicle: Klucel (hydroxypropylcellulose) (HPC))?
Answer: 96 % of control

Question: And the T/C (dose: 200.0 mg/kg/injection, schedule: Q01DX001 (ip), vehicle: Klucel (hydroxypropylcellulose) (HPC))?
Answer: 91 % of control

Question: And the T/C (dose: 200.0 mg/kg/injection, schedule: Q04DX003 (ip), vehicle: Klucel (hydroxypropylcellulose) (HPC))?
Answer: 89 % of control

Question: What about the T/C (dose: 400.0 mg/kg/injection, schedule: Q01DX001 (ip), vehicle: Klucel (hydroxypropylcellulose) (HPC)) of the same molecule?
Answer: 91 % of control

Question: And the T/C (dose: 400.0 mg/kg/injection, schedule: Q04DX003 (ip), vehicle: Klucel (hydroxypropylcellulose) (HPC))?
Answer: 93 % of control

Question: How did the T/C (dose: 0.5 mg/kg/injection, schedule: Q01DX001 (ip), vehicle: saline) turn out when `CCc1cc2c(cc1C(=O)/C=C\C(=O)O)C(C)(C)CCC2(C)C` was run?
Answer: 96 % of control

Question: What about the T/C (dose: 1.0 mg/kg/injection, schedule: Q01DX001 (ip), vehicle: saline) of the same molecule?
Answer: 100 % of control

Question: What about the T/C (dose: 2.0 mg/kg/injection, schedule: Q01DX001 (ip), vehicle: saline) of the same molecule?
Answer: 98 % of control

Question: And the T/C (dose: 2.97 mg/kg/injection, schedule: Q01DX001 (ip), vehicle: saline)?
Answer: 100 % of control

Question: What about the T/C (dose: 3.75 mg/kg/injection, schedule: Q01DX009 (ip), vehicle: saline with Tween-80) of the same molecule?
Answer: 98 % of control

Question: And the T/C (dose: 3.75 mg/kg/injection, schedule: Q04DX003 (ip), vehicle: acetone)?
Answer: 101 % of control

Question: And the T/C (dose: 4.5 mg/kg/injection, schedule: Q01DX001 (ip), vehicle: saline)?
Answer: 104 % of control

Question: And the T/C (dose: 6.75 mg/kg/injection, schedule: Q01DX001 (ip), vehicle: saline)?
Answer: 104 % of control

Question: And the T/C (dose: 7.5 mg/kg/injection, schedule: Q01DX009 (ip), vehicle: saline with Tween-80)?
Answer: 94 % of control

Question: What about the T/C (dose: 7.5 mg/kg/injection, schedule: Q04DX003 (ip), vehicle: acetone) of the same molecule?
Answer: 108 % of control

Question: And the T/C (dose: 9.9 mg/kg/injection, schedule: Q01DX001 (ip), vehicle: saline)?
Answer: 96 % of control

Question: What about the T/C [1] of the same molecule?
Answer: 98 % of control

Question: And the T/C (dose: 15.0 mg/kg/injection, schedule: Q04DX003 (ip), vehicle: acetone)?
Answer: 98 % of control

Question: Which T/C [2] does the source give for `COc1ccc(CCNC(=O)Cc2ccc([N+](=O)[O-])cc2)cc1OC` here?
Answer: 89 % of control

Question: What about the T/C [3] of the same molecule?
Answer: 98 % of control

Question: And the T/C [4]?
Answer: 93 % of control

Question: With `NC(=O)N1CCCC1` as the molecule, how does the T/C [5] read?
Answer: 98 % of control

Question: And the T/C [6]?
Answer: 95 % of control

Question: What about the T/C [7] of the same molecule?
Answer: 95 % of control

Question: With `O=c1[nH]cc(Sc2ccccc2)c(=O)[nH]1` as the molecule, how does the T/C [8] read?
Answer: 101 % of control

Question: What about the T/C [9] of the same molecule?
Answer: 93 % of control

Question: What about the T/C [10] of the same molecule?
Answer: 96 % of control

Question: `CCOP(=O)(OCC)C(C)C#N` (stereo not drawn) was tested. Which T/C [1] did it give?
Answer: 95 % of control

Question: And the T/C (dose: 30.0 mg/kg/injection, schedule: Q01DX001 (ip), vehicle: saline)?
Answer: 100 % of control

Question: What does the source list for `COc1cc(C)c2c(OC)ccc(OC)c2n1`?
Answer: T/C [5]: 94 % of control; T/C [6]: 97 % of control; T/C [7]: 103 % of control

Question: Which results are given for `Cc1cc(/C=C/c2ccccc2)nc2ccccc12`?
Answer: T/C [5]: 96 % of control; T/C [6]: 100 % of control; T/C [7]: 90 % of control

Question: Which T/C (dose: 25.0 mg/kg/injection, schedule: Q04DX002 (ip), vehicle: saline) does the source give for `NC(=O)NNC(=O)C(Cl)(Cl)Cl` here?
Answer: 108 % of control

Question: What about the T/C (dose: 50.0 mg/kg/injection, schedule: Q04DX002 (ip), vehicle: saline) of the same molecule?
Answer: 99 % of control

Question: What about the T/C (dose: 100.0 mg/kg/injection, schedule: Q04DX002 (ip), vehicle: saline) of the same molecule?
Answer: 101 % of control

Question: What does the source list for `CCOC(=O)C(CCC1=NC(C)(C)CC(C)O1)C(=O)OCC` (stereo not drawn)?
Answer: T/C [8]: 94 % of control; T/C [9]: 101 % of control; T/C [10]: 94 % of control

Question: Which T/C (dose: 1.5 mg/kg/injection, schedule: Q01DX009 (ip), vehicle: saline) does the source give for `CN(N=O)C(=O)NC(N)=O` here?
Answer: 110 % of control

Question: And the T/C (dose: 1.87 mg/kg/injection, schedule: Q01DX Z (ip), vehicle: carboxymethylcellulose (CMC))?
Answer: 115 % of control

Question: What about the T/C (dose: 10.0 mg/kg/injection, schedule: Q01DX Z (ip), vehicle: carboxymethylcellulose (CMC)) of the same molecule?
Answer: 188 % of control

Question: What about the T/C (dose: 15.0 mg/kg/injection, schedule: Q01DX Z (ip), vehicle: carboxymethylcellulose (CMC)) of the same molecule?
Answer: 177 % of control

Question: And the T/C (dose: 30.0 mg/kg/injection, schedule: Q01DX Z (ip), vehicle: carboxymethylcellulose (CMC))?
Answer: 110 % of control

Question: And the T/C (dose: 40.0 mg/kg/injection, schedule: Q01DX Z (ip), vehicle: carboxymethylcellulose (CMC))?
Answer: 91 % of control

Question: What about the T/C (dose: 50.0 mg/kg/injection, schedule: Q01DX Z (ip), vehicle: saline) of the same molecule?
Answer: 122 % of control

Question: And the T/C (dose: 75.0 mg/kg/injection, schedule: Q01DX Z (ip), vehicle: saline)?
Answer: 112 % of control

Question: And the T/C (dose: 100.0 mg/kg/injection, schedule: Q01DX Z (ip), vehicle: saline)?
Answer: 92 % of control

Question: How did the T/C (dose: 25.0 mg/kg/injection, schedule: Q04DX002 (ip), vehicle: Klucel (hydroxypropylcellulose) (HPC)) turn out when `CC(SS(=O)(=O)O)C(N)=NCc1ccccc1` (stereo not drawn) was run?
Answer: 94 % of control

Question: And the T/C (dose: 50.0 mg/kg/injection, schedule: Q04DX002 (ip), vehicle: Klucel (hydroxypropylcellulose) (HPC))?
Answer: 108 % of control

Question: And the T/C (dose: 100.0 mg/kg/injection, schedule: Q04DX002 (ip), vehicle: Klucel (hydroxypropylcellulose) (HPC))?
Answer: 98 % of control

Question: Which results are given for `O=C(O)C(Br)CCCCC(Br)C(=O)O` (stereo not drawn)?
Answer: T/C (dose: 100.0 mg/kg/injection, schedule: Q01DX001 (ip), vehicle: steriod suspending solution): 105 % of control; T/C (dose: 200.0 mg/kg/injection, schedule: Q01DX001 (ip), vehicle: steriod suspending solution): 97 % of control; T/C (dose: 400.0 mg/kg/injection, schedule: Q01DX001 (ip), vehicle: steriod suspending solution): 105 % of control

Question: Which results are given for `CC(O)C1(O)C(O)CC(OC2c3cc4c(c(O)c3[C@@H]3C[C@@]2(C)OC32C=c3cc[nH]c3=N2)C(=O)c2cccc(O)c2C4=O)OC1C` (stereo partly drawn)?
Answer: T/C (dose: 0.5 mg/kg/injection, schedule: Q01DX009 (ip), vehicle: saline with Tween-80): 101 % of control; T/C (dose: 1.0 mg/kg/injection, schedule: Q01DX009 (ip), vehicle: saline with Tween-80): 101 % of control; T/C (dose: 2.0 mg/kg/injection, schedule: Q01DX009 (ip), vehicle: saline with Tween-80): 105 % of control; T/C (dose: 2.0 mg/kg/injection, schedule: Q01DX009 (ip), vehicle: saline): 112 % of control; T/C (dose: 4.0 mg/kg/injection, schedule: Q01DX009 (ip), vehicle: saline with Tween-80): 110 % of control; T/C (dose: 4.0 mg/kg/injection, schedule: Q01DX009 (ip), vehicle: saline): 109 % of control; T/C (dose: 8.0 mg/kg/injection, schedule: Q01DX009 (ip), vehicle: saline with Tween-80): 103 % of control; T/C (dose: 8.0 mg/kg/injection, schedule: Q01DX009 (ip), vehicle: saline): 106 % of control; T/C (dose: 16.0 mg/kg/injection, schedule: Q01DX009 (ip), vehicle: saline): 121 % of control; T/C (dose: 32.0 mg/kg/injection, schedule: Q01DX009 (ip), vehicle: saline): 104 % of control

Question: Which T/C (dose: 31.25 mg/kg/injection, schedule: Q01DX009 (ip), vehicle: Klucel (hydroxypropylcellulose) (HPC)) does the source give for `CC(C)(C)NC(=O)C(Cl)(Cl)Cl` here?
Answer: 98 % of control

Question: And the T/C (dose: 62.5 mg/kg/injection, schedule: Q01DX009 (ip), vehicle: Klucel (hydroxypropylcellulose) (HPC))?
Answer: 107 % of control

Question: And the T/C (dose: 125.0 mg/kg/injection, schedule: Q01DX009 (ip), vehicle: Klucel (hydroxypropylcellulose) (HPC))?
Answer: 109 % of control

Question: What about the T/C (dose: 250.0 mg/kg/injection, schedule: Q01DX009 (ip), vehicle: Klucel (hydroxypropylcellulose) (HPC)) of the same molecule?
Answer: 94 % of control

Question: `NC(=S)N/N=C/c1ccns1` was tested. Which T/C (dose: 100.0 mg/kg/injection, schedule: Q04DX002 (ip), vehicle: saline with Tween-80) did it give?
Answer: 109 % of control

Question: And the T/C (dose: 200.0 mg/kg/injection, schedule: Q04DX002 (ip), vehicle: saline with Tween-80)?
Answer: 97 % of control

Question: And the T/C (dose: 400.0 mg/kg/injection, schedule: Q04DX002 (ip), vehicle: saline with Tween-80)?
Answer: 103 % of control

Question: Which results are given for `CC(C)(C)C(=O)CC(=O)C(C)(C)C.CC(C)(C)C(=O)CC(=O)C(C)(C)C.CC(C)(C)C(=O)CC(=O)C(C)(C)C.[Gd]`?
Answer: T/C [8]: 101 % of control; T/C [9]: 101 % of control; T/C [10]: 92 % of control

Question: Which results are given for `O=C(O)c1nccc2c(O)cccc12`?
Answer: T/C [11]: 93 % of control; T/C [12]: 102 % of control; T/C [13]: 101 % of control

Question: With `CCOC(=O)/C=C/C(=O)O` as the molecule, how does the T/C (dose: 50.0 mg/kg/injection, schedule: Q01DX001 (ip), vehicle: carboxymethylcellulose (CMC)) read?
Answer: 111 % of control

Question: And the T/C (dose: 75.0 mg/kg/injection, schedule: Q01DX001 (ip), vehicle: carboxymethylcellulose (CMC))?
Answer: 86 % of control

Question: What about the T/C [2] of the same molecule?
Answer: 105 % of control

Question: What about the T/C [11] of the same molecule?
Answer: 95 % of control and 109 % of control

Question: And the T/C [3]?
Answer: 114 % of control

Question: And the T/C [12]?
Answer: 103 % of control and 109 % of control

Question: What about the T/C [4] of the same molecule?
Answer: 101 % of control

Question: And the T/C [13]?
Answer: 95 % of control and 97 % of control
